Reference: patent US5340589A, “Low solubility drug-coated bead compositions” (Sterling Winthrop Inc., priority 1993, dated 1994)

Columns and labels:
[1] = in vivo, po; cited from earlier work
[2] = dog, in vivo, po
Experimental: Blood samples were taken at 0.25(tablet only), 0.5, 1, 2, 4, 6, 8, 10, 12 and 24 hours postmedication. The plasma concentration of (5α,17α)-1'-(methylsulfonyl)-1'-H-pregn-20-yno[3,2-c]pyrazol-17-ol was measured from each sample. The data were analyzed to determine the mean maximum concentration of (5α,17α)-1'-(methylsulfonyl)-1'-H-pregn-20-yno[3,2-c]pyrazol-17-ol reached (mean Cmax) and the mean area under the (5α,17α)-1'-(methylsulfonyl)-1'H-pregn-20-yno[3,2-c]pyrazol-17-ol concentration-time curve for the twenty-four hour period (mean AUC0-24).

Row | Molecule | human bioavailability compared with conventional starch-lactose-talc-magnesium stearate dry powder capsule formulations [1] | Mean Cmax [2] | Mean AUC0-24 ([2]; 24 h)
1 | C#C[C@]1(O)CC[C@H]2[C@@H]3CCC4=Cc5oncc5C[C@]4(C)[C@H]3CC[C@@]21C [Compound A, 17a-pregna-2,4-diene-20-yno[2,3-d]isoxazol-17-ol] | Improved human bioavailability |  | 
2 | (5α,17α)-1'-(methylsulfonyl)-1'H-pregn-20-yno[3,2-c]pyrazol-17-ol [Comparative Example] |  | 0.23 (0.11) μg./ml. | 1.70 (1.64) μg.-hr./ml.
